In experiment [1] the test system is methylphenidate-induced gnawing. Put plainly: Methylphenidate antagonism. It is filed as in vivo, mice.
Experiment [2] in a line: Catalepsy. It is filed as in vivo, rat.
In experiment [3] the target is T1, 5-HT2 receptor (Rattus norvegicus, UniProt P14842).
T1 construct: from tissue; host or cells: living rats (in vivo), CNS
Description: Quipazine inhibition (head twitches). Particulars: for Qvipaz. inh. ED50(sc): sc 2 hours before quipazine 15 umol/kg sc. It is filed as in vivo. As to the method: Quipazine and a number of other compounds, which increase 5-HT2 receptor activity in the CNS, induce a characteristic rapid shake (twitch) of the head. This response is inhibited by 5-HT2 receptor antagonists (Vetulani et al. 1980, Arnt et al. 1984).
The test compound or saline is injected subcutaneously 2 hours before subcutaneous injection of quipazine hemimalecate (15umol/kg). At least 3 dose groups, each consisting of at least 4 rats, are used. The rats are individually placed in observation cages (12×25 cm) and the number of head twitches are counted 30-40 min after quipazine administration. Inhibition of head twitches is expressed in per cent of the number of head twitches in the control group. ED 50 values are calculated by log-probit analysis.
Vetulani, J., B.B. Beduarczyk, K. Reichenberg and A. Rokost: Neuropharmacology 19, 155-158, […].
Arnt, J., J. Hyttel and J.-J. Larsen: Acta pharmacol. et toxicol. 55, 363-372, 1984.

Experiment [4] concerns the target T2, dopamine (DA) D-2 receptors (Rattus norvegicus, UniProt P61169).
T2 construct: DA D-2 receptors in rat striatal membranes; from tissue; host or cells: rat striatal membranes
Description: 3H-spiroperidol binding, dopamine D-2 receptors in rat striatal membranes. The method, then: 4. ^3 H-spiroperidol bindings
The affinity of compounds to dopamine (DA) D-2 receptors and serotomin2 (5-HT2) receptors was determined by in vitro receptor binding technique.
Arnt, J., J. Hyttel and J.-J. Larsen: Acta pharmacol. et toxicol.

Setting [5] is: Mus musculus, ip; i.p. test substance; mice; methylphenidate s.c. 60 mg/kg; read-out: MePh Antg. ED50(ip).
[6] abbreviates: Mus musculus, sc, read-out: MePh Antg. ED50 (sc).
[7] abbreviates: Mus musculus, sc; read-out: MePh Antg. ED50 (sc).
Setting [8] is: read-out: Catalep. ED50(po) 1-6 h, po, rat, 1-6 h.
[9] abbreviates: Rattus norvegicus, sc, 24 h, read-out: Catalep. ED50 (sc) 24 h.
Setting [10] is: Rattus norvegicus, sc, read-out: Catalep. ED50 (sc) 1-6 h.
The mark [11] stands for this setting: read-out: Catalep. ED50(po) 24 h, po, rat, 24 h.

Where a name gives a salt, the structure may show the parent alone. Read-outs that look alike come from different tables or passages of the source. Some results are limits rather than exact numbers.

What is called ED50 is the dose at which the effect has come halfway, by size or by number of responders. One may read the IC50 as the concentration needed to halve the response being measured.

T1 sequence (P14842 whole entry): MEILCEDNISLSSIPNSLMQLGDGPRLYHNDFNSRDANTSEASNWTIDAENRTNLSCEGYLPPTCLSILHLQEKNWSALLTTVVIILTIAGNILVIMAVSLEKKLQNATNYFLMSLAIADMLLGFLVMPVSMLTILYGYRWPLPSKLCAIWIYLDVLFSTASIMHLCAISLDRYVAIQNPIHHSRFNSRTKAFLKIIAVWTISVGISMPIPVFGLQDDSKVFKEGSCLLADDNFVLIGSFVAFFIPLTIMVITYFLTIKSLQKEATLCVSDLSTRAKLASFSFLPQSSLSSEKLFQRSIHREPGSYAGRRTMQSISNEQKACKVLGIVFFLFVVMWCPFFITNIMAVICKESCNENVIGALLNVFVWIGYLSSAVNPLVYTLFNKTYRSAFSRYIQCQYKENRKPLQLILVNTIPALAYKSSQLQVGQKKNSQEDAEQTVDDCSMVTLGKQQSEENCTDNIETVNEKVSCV
T2 sequence (P61169 whole entry): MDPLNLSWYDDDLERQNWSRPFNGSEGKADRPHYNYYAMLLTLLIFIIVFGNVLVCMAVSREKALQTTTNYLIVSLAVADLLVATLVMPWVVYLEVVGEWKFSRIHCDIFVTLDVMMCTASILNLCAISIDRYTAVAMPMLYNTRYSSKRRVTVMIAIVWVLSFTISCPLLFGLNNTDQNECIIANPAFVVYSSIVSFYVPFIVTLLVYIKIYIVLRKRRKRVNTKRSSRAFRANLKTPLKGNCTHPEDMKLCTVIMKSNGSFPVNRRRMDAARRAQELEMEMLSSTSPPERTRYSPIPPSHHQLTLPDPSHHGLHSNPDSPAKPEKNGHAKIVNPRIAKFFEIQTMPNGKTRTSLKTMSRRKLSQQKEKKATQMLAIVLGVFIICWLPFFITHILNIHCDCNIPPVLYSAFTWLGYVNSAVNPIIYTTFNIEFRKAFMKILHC

On to `Cc1ccc2c(c1)c(C1CCN(C)CC1)cn2-c1ccc(F)cc1` [Lu 21-037, 1-(4'-Fluorophenyl)-5-methyl-3-(1-methyl-4-piperidyl)-1H-indole, hydrobromide], for which the median effective dose (ED50) in experiment [1] (setting [5]) was found to be 2.1 µmol/kg.

As for `OCCN1CC=C(c2cn(-c3ccc(C(F)(F)F)cc3)c3ccccc23)CC1` [Lu 24-012, 3-(1-(2-Hydroxyethyl)-1,2,3,6-tetrahydropyridin-4-yl)-1-(4'-trifluoromethylphenyl-1H-indole, fumarate], the ED50 in experiment [1] (setting [6]) is over 20 µmol/kg.

Turning to `CCCCCCCC/C=C\CCCCCCCC(=O)OCCN1CCN(c2cn(-c3ccc(F)cc3)c3ccc(C(F)(F)F)cc23)CC1` [Lu 23-163, 1-(4'-Fluorophenyl)-3-(4-(l-oleyloxyethyl)-1-piperazino)-5-trifluoromethyl-1H-indole, dihydrochloride], in experiment [1] (setting [7]), the 50% effective dose (ED50) is 1.1 µmol/kg.

Take `O=C(CCCN1CCC(O)(c2ccc(Cl)cc2)CC1)c1ccc(F)cc1` [Haloperidol, reference compound]: the ED50 in experiment [1] (setting [5]) came out at 0.11 µmol/kg; in experiment [2] (setting [8]) it was 1 µmol/kg.

Regarding `Fc1ccc(-n2cc(C3=CCNCC3)c3cc(F)ccc32)cc1` [Lu 23-159, 5-fluoro-1-(4'-fluorophenyl)-3-(1,2,3,6-tetrahydropyridin-4-yl)-1H-indole], the ED50 in experiment [1] (setting [6]) was found to be 47 µmol/kg.

As for `O=C1NCCN1CCN1CC=C(c2cn(-c3ccc(F)cc3)c3ccc(C(F)(F)F)cc23)CC1` [Lu 23-157, 1-(4'-Fluorophenyl)-3-(1-(2-imidazolidinon-1-ylethyl)-1,2,3,6-tetrahydropridin-4-yl)-5-trifluoromethyl-1H-indole], the ED50 in experiment [1] (setting [6]) turned out to be 0.37 µmol/kg; in experiment [2] (setting [9]), 2.6 µmol/kg; in experiment [2] (setting [10]), 0.49 µmol/kg. The “Qvipaz. inh. ED50(sc)” value in experiment [3] was 0.12 µmol/kg.

`CN1CC=C(c2cn(-c3cccs3)c3ccc([N+](=O)[O-])cc23)CC1` [Lu 24-014, 3-(1-Methyl-1,2,3,6-tetrahydropyridin-4-yl)-5-nitro-1-(2-thienyl)-1H-indole, maleate]: the ED50 in experiment [1] (setting [6]) was over 22 µmol/kg.

For `O=C1CCCN1CCN1CCC(c2cn(-c3ccc(F)cc3)c3ccc(C(F)(F)F)cc23)CC1` [Lu 23-158, 1-(4'-Fluorophenyl)-3-(1-(1-pyrrolidin-2-onylethyl)-4-piperidyl)-5-trifluoromethyl-1H-indole, fumarate], the ED50 in experiment [1] (setting [7]) is 2.9 µmol/kg.

Regarding `CC(C)N1CC=C(c2cn(-c3ccc(F)cc3)c3ccc(F)cc23)CC1` [Lu 23-167, 5-fluoro-1-(4'-fluorophenyl)-3-(1-(2-propyl)-1,2,3,6-tetrahydropyridin-4-yl)-1H-indole, fumarate], the ED50 in experiment [1] (setting [6]) was 2.7 µmol/kg; in experiment [2] (setting [9]), over 11 µmol/kg; in experiment [2] (setting [10]), 2.7 µmol/kg.

As to `CCCCCCCCCC(=O)OCCN1CCN(c2cn(-c3ccc(F)cc3)c3ccc(C(F)(F)F)cc23)CC1` [Lu 23-162], in experiment [1] (setting [7]), the ED50 came to 1.7 µmol/kg.

As for `Fc1ccc(-n2cc(N3CCN(CCN4CCCC4=S)CC3)c3cc(C(F)(F)F)ccc32)cc1` [Lu 23-018, 1-(4'-Fluorophenyl)-3-(4-(2-(pyrrolidin-2-thion-1-yl)-ethyl)-1-piperazino)-5-trifluoromethyl-1H-indole], the median effective dose (ED50) in experiment [1] (setting [5]) turned out to be 53 µmol/kg; in experiment [2] (setting [8]), 1.2 µmol/kg; in experiment [2] (setting [11]), 2.9 µmol/kg.

On to `CN1CC=C(c2cn(-c3ccccn3)c3ccc([N+](=O)[O-])cc23)CC1` [Lu 24-015, 3-(1-Methyl-1,2,3,6-tetrahydropyridin-4-yl)-5-nitro-1-pyridin-2-yl-1H-indole], for which the ED50 in experiment [1] (setting [6]) amounted to 3.8 µmol/kg.

With `Fc1ccc(-n2cc(C3=CCN(CCn4cccc4)CC3)c3cc(C(F)(F)F)ccc32)cc1` [Lu 23-172, 1-(4'-Fluorophenyl)-3-(1-pyrrolo-2-ethyl)-1,2,3,6-tetrahydropyridin-4-yl)-5-trifluoromethyl-1H-indole. maleate], in experiment [1] (setting [6]), the ED50 was over 70 µmol/kg. Moreover, the “Qvipaz. inh. ED50(sc)” value in experiment [3] was over 0.55 µmol/kg. Moreover, the IC50 in experiment [4] (read-out: 3H-Spiroperidol bindings DA-2 receptors IC50, rat striatal membranes, in vitro) is 31 nM.

For `Fc1ccc(-n2cc(C3=CCNCC3)c3cc(Cl)ccc32)cc1` [Lu 23-147, 5-Chloro-1-(4'-fluorophenyl)-3-(1,2,3,6-tetrahydropridin-4-yl)-1H-indole], the ED50 in experiment [1] (setting [6]) is over 99 µmol/kg.

With `CN1CC=C(c2cn(-c3nccs3)c3ccc(F)cc23)CC1` [Lu 24-013, 5-Fluro-3-(1-methyl-1,2,3,6-tetrahydropyridin-4-yl)-1-(2-thiazolo)-1H-indole, fumarate], the 50% effective dose (ED50) in experiment [1] (setting [6]) was over 20 µmol/kg.

Consider `O=C1NCCN1CCN1CC=C(c2cn(-c3ccc(F)cc3)c3ccc(Cl)cc23)CC1` [Lu 23-148, 5-Chloro-1-(4'-fluorophenyl)-3-(1-(2-imidazolidinon-1-ylethyl)-1,2,3,6-tetrahydropyridin-4-yl)-1H-indole], for which, in experiment [1] (setting [6]), the ED50 is over 91 µmol/kg.

Consider `CN1CC=C(c2cn(-c3cccnc3)c3ccc([N+](=O)[O-])cc23)CC1` [Lu 24-016, 3-(1-Methyl-1,2,3,6-tetrahydropyridin-4-yl)-5-nitro-1-pyridin-3-yl-1H-indole], for which, in experiment [1] (setting [6]), the 50% effective dose (ED50) is over 30 µmol/kg.

Consider `O=C1NCCN1CCN1CC=C(c2cn(-c3ccc(F)cc3)c3ccc(F)cc23)CC1` [Lu 21-046, oxalate], for which, in experiment [1] (Mus musculus, ip, read-out: MePh Antg. ED50(ip)), the 50% effective dose (ED50) is 48.1 µmol/kg.

Turning to `Fc1ccc(-n2cc(C3=CCN(CCn4ccnc4)CC3)c3cc(C(F)(F)F)ccc32)cc1` [Lu 24-002, 1-(4'-Fluorophenyl)-3-(1-(1-imidazole-2-ethyl)-1,2,3,6-tetrahydropyridin-4-yl)-5-trifluoromethyl-1H-indole, dimaleate], in experiment [1] (setting [6]), the ED50 is 0.45 µmol/kg. Moreover, in experiment [3], the “Qvipaz. inh. ED50(sc)” value is over 0.45 µmol/kg.

`OCCN1CCN(CC/C=C2/c3ccccc3Sc3ccc(C(F)(F)F)cc32)CC1` [Cis(Z)Flupentixol, reference compound]: in experiment [1] (i.p. test substance; mice; methylphenidate s.c. 60 mg/kg), the “MePh Antg. ED50(ip)” value came to 0.14 µmol/kg. Further, the “Catalep. ED50(po) 1-6 h” value in experiment [2] (po, rat, 1-6 h) is 2.4 µmol/kg. The “Catalep. ED50(po) 24 h” value in experiment [2] (po, rat, 24 h) amounted to 19 µmol/kg. In addition, in experiment [3], the “Qvipaz. inh. ED50(sc)” value came out at 0.042 µmol/kg.

Regarding `OCCN1CC=C(c2cn(-c3ccc(F)cc3)c3ccc(Cl)cc23)CC1` [Lu 23-146, 5-Chloro-1-(4'-fluorophenyl)-3-(1-(2-hydroxyethyl)-1,2,3,6-tetrahydropyridin-4-yl)-1H-indole, hydrochloride], the ED50 in experiment [1] (setting [6]) was 0.73 µmol/kg; in experiment [2] (setting [10]) it was 1 µmol/kg.

As for `OCCCN1CC=C(c2cn(-c3ccc(F)cc3)c3ccc(C(F)(F)F)cc23)CC1` [Lu 23-171, 1-(4'-Fluorophenyl)-3-(1-(3-hydroxypropyl)-1,2,3,6-tetrahydropyridin-4-yl) -5trifluoromethyl-1H-indole], in experiment [1] (setting [6]), the ED50 turned out to be 0.11 µmol/kg.

As to `O=[N+]([O-])c1ccc2c(c1)c(C1=CCNCC1)cn2-c1ccc(F)cc1` [Lu 23-133, 1-(4'-Fluorophenyl)-5-nitro-3-(1,2,3,6-tetrahydropyridin-4-yl)-1H-indole, maleate], the median effective dose (ED50) in experiment [1] (setting [6]) was 18 µmol/kg; in experiment [2] (Rattus norvegicus, po, 24 h, read-out: Catalep. ED50(po) 24 h), over 11 µmol/kg; in experiment [2] (Rattus norvegicus, po, read-out: Catalep. ED50(po) 1-6 h) it was 11 µmol/kg. Also, the half-inhibitory concentration (IC50) in experiment [4] turned out to be 5.9 nM.

With `CN1CCC(c2cn(-c3ccc(F)cc3)c3ccc(C(F)(F)F)cc23)CC1` [Lu 21-131, 1-(4'-Fluorophenyl)-3-(1-methyl-4-piperidyl)-5-trifluoromethyl-1H-indole, oxalate], the 50% effective dose (ED50) in experiment [1] (setting [5]) came out at 0.6 µmol/kg; in experiment [2] (setting [8]), 0.59 µmol/kg; in experiment [2] (setting [11]), 2.2 µmol/kg.

For `O=C1NCCN1CCN1CC=C(c2cn(-c3ccc(F)cc3)c3ccccc23)CC1` [Lu 23-075, 1-(4'-Fluorophenyl)-3-(1-(2-imidazolidinon-1-ylethyl)-1,2,3,6-tetrahydropyridin-4-yl)-1H-indole, hydrochloride], the ED50 in experiment [1] (setting [6]) stood at 19 µmol/kg; in experiment [3] (sc, 2 h, read-out: Qvipaz. inh. ED50(sc)), 0.18 µmol/kg.

As to `CN1CC=C(c2cn(-c3ccc(F)cc3)c3ccc(N)cc23)CC1` [Lu 23-149, 5-Amino-1-(4'-fluorophenyl)-3-(1-methyl-1,2,3,6-tetrahydropyridin-4-yl)-1H-indole, fumarate], in experiment [1] (setting [6]), the ED50 came out at 0.45 µmol/kg.

Take `CN1CC=C(c2cn(-c3cccc(F)c3)c3ccc([N+](=O)[O-])cc23)CC1` [Lu 24-004, 1-(3'-Fluorophenyl)-5-nitro-3-(1-methyl-1,2,3,6-tetrahydropyridin-4-yl)-1H-indole, maleate]: in experiment [1] (setting [6]), the ED50 is 1.1 µmol/kg.

Turning to `CC(=O)OCCN1CCN(c2cn(-c3ccc(F)cc3)c3ccc(C(F)(F)F)cc23)CC1` [Lu 23-161], the values for the ED50 in experiment [1] (setting [7]), in experiment [2] (setting [9]) and in experiment [2] (setting [10]) were 0.05 µmol/kg, 0.18 µmol/kg and 0.09 µmol/kg, respectively.

With `Fc1ccc(-n2cc(C3=CCNCC3)c3cc(C(F)(F)F)ccc32)cc1` [Lu 23-155, 1-(4'-Fluorophenyl)-3-(1,2,3,6-tetrahydropyridin-4-yl)-5-trifluoromethyl-1H-indole], in experiment [1] (setting [6]), the median effective dose (ED50) worked out at 3.8 µmol/kg.

The values are drawn from patent US4710500A, “1-(4'-fluorophenyl)-3,5-substituted indoles useful in the treatment of psychic disorders and pharmaceutical compositions thereof” (H. Lundbeck A/S, priority 1985, dated 1987).
